Where two headings read alike, the source gives them in different places. Starred links: 1 amine or outer side, 2 acyl side, 3 side chain; linkers in the order of their positions; H or OH if unused. Positions of bridges follow the written chain, without caps; N, C: chain ends. Non-standard residues stand in square brackets, D forms with d. Residues, ends and D or L forms follow the SMILES beside them. Groups on a side chain read outwards from the residue. *: point of attachment. Ala(1-CH2CO2H-4-piperidyl) = N[C@@H](CC1CCN(CC(=O)O)CC1)C(=O)O; Ala(piperidin-4-yl) = O=C([C@H](CC1CCN([*:3])CC1)N[*:1])[*:2]; DOTA = O=C(O)CN1CCN(CC(=O)O)CCN(CC(=O)*)CCN(CC(=O)O)CC1; Phe(4-COOH) = N[C@@H](Cc1ccc(C(=O)O)cc1)C(=O)O; Trp(5-F) = N[C@@H](Cc1c[nH]c2ccc(F)cc12)C(=O)O; Trp(1-Me) = Cn1cc(C[C@H](N)C(=O)O)c2ccccc21; γGlu = O=C(O)[C@H](CCC(=O)[*:2])N[*:1]; 1Nal = N[C@@H](Cc1cccc2ccccc12)C(=O)O; Ala(4-THP) = N[C@@H](CC1CCOCC1)C(=O)O; Val(3-OH) = CC(C)(O)[C@H](N)C(=O)O; hCha = N[C@@H](CCC1CCCCC1)C(=O)O; αMeF = C[C@](N)(Cc1ccccc1)C(=O)O; 4Pal = N[C@@H](Cc1ccncc1)C(=O)O; Cit = NC(=O)NCCC[C@H](N)C(=O)O; NMeNle = CCCC[C@H](NC)C(=O)O; PEG4 = NCCOCCOCCOCCOCCC(=O)O; Tle = CC(C)(C)[C@H](N)C(=O)O; hLeu = CC(C)CC[C@H](N)C(=O)O; NMeS = CN[C@@H](CO)C(=O)O
Target: T1, human 4lg B7-H3 (Homo sapiens, UniProt Q5ZPR3)
T1 sequence (Q5ZPR3 29-534): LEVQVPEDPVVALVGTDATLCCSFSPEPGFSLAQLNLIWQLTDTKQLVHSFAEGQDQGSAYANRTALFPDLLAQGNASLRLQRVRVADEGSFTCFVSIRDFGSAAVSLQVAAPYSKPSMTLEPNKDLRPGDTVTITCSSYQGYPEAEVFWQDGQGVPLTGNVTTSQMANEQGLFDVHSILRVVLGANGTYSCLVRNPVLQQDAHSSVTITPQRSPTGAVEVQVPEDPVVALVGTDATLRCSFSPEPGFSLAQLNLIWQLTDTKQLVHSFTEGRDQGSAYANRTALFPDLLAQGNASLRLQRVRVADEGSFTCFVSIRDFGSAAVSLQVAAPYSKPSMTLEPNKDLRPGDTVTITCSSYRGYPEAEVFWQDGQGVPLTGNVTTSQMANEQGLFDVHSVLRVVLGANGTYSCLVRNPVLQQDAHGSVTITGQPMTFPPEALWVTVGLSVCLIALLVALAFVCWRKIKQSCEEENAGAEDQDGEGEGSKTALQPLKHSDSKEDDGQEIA
Test: Affinity determination by surface plasmon resonance (SPR) to 4Ig B7-H3
Settings: 4Ig B7-H3

[1] = SPR KD—37° C., 37° C. flow cell temperature
[2] = SPR KD—25° C., 25° C. flow cell temperature

| Kd [1] [nM] | Kd [2] [nM] | SMILES | also measured |
| --- | --- | --- | --- |
|  |  | CC(=O)N[C@@H](CCC(C)C)C(=O)N[C@@H](Cc1ccc(O)cc1)C(=O)N[C@H]1CSSC[C@@H](C(=O)N[C@@H](Cc2c[nH]c3ccc(F)cc23)C(=O)N[C@@H](Cc2ccccc2)C(=O)N[C@H](C(=O)N[C@H](C)C(=O)O)C(C)(C)O)NC(=O)[C@H](Cc2ccc(O)cc2)NC(=O)[C@H](C(C)C)NC(=O)[C@H](CC(=O)O)NC(=O)[C@H](CC2CCN(C(=O)CCOCCOCCOCCOCCNC(=O)CN3CCN(CC(=O)O)CCN(CC(=O)O)CCN(CC(=O)O)CC3)CC2)NC(=O)[C@H](CCCNC(N)=O)NC(=O)CNC(=O)[C@H](C(C)(C)C)NC1=O [compound 489, Ac-hLeu-Y-C-Tbg-G-Cit-Pip(PEG4-DOTA)Ala-D-V-Y-C-5FW-F-hydroxyVal-dAla-COOH] (Ac-[hLeu]YC[Tle]G[Cit][Ala(piperidin-4-yl)]([PEG4-DOTA])DVYC[Trp(5-F)]F[Val(3-OH)][dA]-OH; disulfide 3-11) | Kd (read-out: SPR KD—37° C., 37° C. flow cell temperature): < 1 nM |
| < 1 |  | CC(=O)N[C@@H](CCC(C)C)C(=O)N[C@@H](Cc1ccc(O)cc1)C(=O)N[C@H]1CSSC[C@@H](C(=O)N[C@@H](Cc2cn(C)c3ccccc23)C(=O)N[C@@H](Cc2ccccc2)C(=O)N[C@H](C(=O)N[C@H](CCCCNC(=O)CN2CCN(CC(=O)O)CCN(CC(=O)O)CCN(CC(=O)O)CC2)C(=O)O)C(C)(C)O)NC(=O)[C@H](Cc2ccc(O)cc2)NC(=O)[C@H](C(C)C)NC(=O)[C@H](CC(=O)O)NC(=O)[C@H](CC2CCOCC2)NC(=O)[C@H](CC2CCNCC2)NC(=O)CNC(=O)[C@H](C(C)(C)C)NC1=O [compound 462, Ac-hLeu-Y-C-Tbg-G-PipAla-ThpA-D-V-Y-C-Trp(Me)-F-hydroxyVal-dLys(DOTA)-COOH] (Ac-[hLeu]YC[Tle]G[Ala(piperidin-4-yl)][Ala(4-THP)]DVYC[Trp(1-Me)]F[Val(3-OH)][dK](DOTA)-OH; disulfide 3-11) |  |
| 1 to 10 |  | CC(=O)N[C@@H](CCC(C)C)C(=O)N[C@@H](Cc1ccc(O)cc1)C(=O)N[C@H]1CSSC[C@@H](C(=O)N[C@@H](Cc2c[nH]c3ccc(F)cc23)C(=O)N[C@@H](Cc2ccccc2)C(=O)N[C@H](C(=O)N[C@H](CO)C(N)=O)C(C)(C)O)NC(=O)[C@H](Cc2ccc(O)cc2)NC(=O)[C@H](C(C)C)NC(=O)[C@H](CC(=O)O)NC(=O)[C@H](CC2CCN(CC(=O)O)CC2)NC(=O)[C@H](CCCCNC(=O)CN2CCN(CC(=O)O)CCN(CC(=O)O)CCN(CC(=O)O)CC2)NC(=O)CNC(=O)[C@H](C(C)(C)C)NC1=O [compound 420, Ac-hLeu-Y-C-Tbg-G-Lys(DOTA)-Pip(CH2COOH)Ala-D-V-Y-C-5FW-F-hydroxyVal-dSer-CONH2] (Ac-[hLeu]YC[Tle]GK(DOTA)[Ala(1-CH2CO2H-4-piperidyl)]DVYC[Trp(5-F)]F[Val(3-OH)][dS]-NH2; disulfide 3-11) |  |
| 1 to 10 |  | CC(=O)N[C@@H](CCC(C)C)C(=O)N[C@@H](Cc1ccc(O)cc1)C(=O)N[C@H]1CSSC[C@@H](C(=O)N[C@@H](Cc2cccc3ccccc23)C(=O)N[C@@H](Cc2ccccc2)C(=O)N2CCC[C@H]2C(=O)N[C@H](CCCCNC(=O)CN2CCN(CC(=O)O)CCN(CC(=O)O)CCN(CC(=O)O)CC2)C(N)=O)NC(=O)[C@H](Cc2ccc(O)cc2)NC(=O)[C@H](C(C)C)NC(=O)[C@H](CC(=O)O)NC(=O)[C@H](Cc2ccc(C(=O)O)cc2)NC(=O)[C@H](CC2CCNCC2)NC(=O)CNC(=O)[C@H](C(C)(C)C)NC1=O [compound 315, Ac-hLeu-Y-C-Tbg-G-PipAla-4COOHPhe-D-V-Y-C-5FW-F-Pro-dLys(DOTA)-CONH2] (Ac-[hLeu]YC[Tle]G[Ala(piperidin-4-yl)][Phe(4-COOH)]DVYC[1Nal]FP[dK](DOTA)-NH2; disulfide 3-11) |  |
| < 1 |  | CC(=O)N[C@@H](CCC1CCCCC1)C(=O)N[C@@H](Cc1ccc(O)cc1)C(=O)N[C@H]1CSSC[C@@H](C(=O)N[C@@H](Cc2c[nH]c3ccc(F)cc23)C(=O)N[C@@H](Cc2ccccc2)C(=O)N[C@H](C(=O)N[C@H](C)C(=O)O)C(C)(C)O)NC(=O)[C@H](Cc2ccc(O)cc2)NC(=O)[C@H](C(C)C)NC(=O)[C@H](CC(=O)O)NC(=O)[C@H](CC2CCOCC2)NC(=O)[C@H](CC2CCN(C(=O)CC[C@H](NC(=O)CN3CCN(CC(=O)O)CCN(CC(=O)O)CCN(CC(=O)O)CC3)C(=O)O)CC2)NC(=O)CNC(=O)[C@H](C(C)(C)C)NC1=O [compound 486, Ac-hCha-Y-C-Tbg-G-Pip(gE-DOTA)Ala-ThpA-D-V-Y-C-5FW-F-hydroxyVal-dAla-COOH] (Ac-[hCha]YC[Tle]G[Ala(piperidin-4-yl)]([γGlu-DOTA])[Ala(4-THP)]DVYC[Trp(5-F)]F[Val(3-OH)][dA]-OH; disulfide 3-11) |  |
|  | 1 to 10 | CCCC[C@@H](C(=O)N[C@H](C(=O)N[C@H](CCCCNC(=O)CN1CCN(CC(=O)O)CCN(CC(=O)O)CCN(CC(=O)O)CC1)C(N)=O)[C@@H](C)O)N(C)C(=O)[C@H](Cc1c[nH]c2ccc(F)cc12)NC(=O)[C@@H]1CSSC[C@H](NC(=O)[C@H](Cc2ccc(O)cc2)NC(=O)[C@H](CCC(C)C)NC(C)=O)C(=O)N[C@@H](C(C)C)C(=O)NCC(=O)N[C@@H](CCCCN)C(=O)N[C@@H](Cc2ccc(O)cc2)C(=O)N[C@@H](CC(=O)O)C(=O)N[C@@H](C(C)C)C(=O)N[C@@H](Cc2ccc(O)cc2)C(=O)N1 [compound 176, Ac-hLeu-Y-C-V-G-K-Y-D-V-Y-C-5FW-NMeNle-Thr-dLys(DOTA)-CONH2] (Ac-[hLeu]YCVGKYDVYC[Trp(5-F)][NMeNle]T[dK](DOTA)-NH2; disulfide 3-11) |  |
|  | 100 to 300 | CC(=O)N[C@@H](CCC(C)C)C(=O)N[C@@H](Cc1ccc(O)cc1)C(=O)N[C@H]1CSSC[C@@H](C(=O)N[C@@H](Cc2c[nH]c3ccc(F)cc23)C(=O)N[C@@](C)(Cc2ccccc2)C(=O)N[C@H](C(=O)N[C@H](CCCCNC(=O)CN2CCN(CC(=O)O)CCN(CC(=O)O)CCN(CC(=O)O)CC2)C(N)=O)[C@@H](C)O)NC(=O)[C@H](Cc2ccc(O)cc2)NC(=O)[C@H](C(C)C)NC(=O)[C@H](CC(=O)O)NC(=O)[C@H](Cc2ccc(O)cc2)NC(=O)[C@H](CCCCN)NC(=O)CNC(=O)[C@H](C(C)C)NC1=O [compound 168, Ac-hLeu-Y-C-V-G-K-Y-D-V-Y-C-5FW-aMePhe-Thr-dLys(DOTA)-CONH2] (Ac-[hLeu]YCVGKYDVYC[Trp(5-F)][αMeF]T[dK](DOTA)-NH2; disulfide 3-11) |  |
|  | 1 to 10 | CC(=O)N[C@@H](CCC(C)C)C(=O)N[C@@H](Cc1ccc(O)cc1)C(=O)N[C@H]1CSSC[C@@H](C(=O)N[C@@H](Cc2cccc3ccccc23)C(=O)N[C@@H](Cc2ccccc2)C(=O)N(C)[C@@H](CO)C(=O)N[C@H](CCCCNC(=O)CN2CCN(CC(=O)O)CCN(CC(=O)O)CCN(CC(=O)O)CC2)C(N)=O)NC(=O)[C@H](Cc2ccc(O)cc2)NC(=O)[C@H](C(C)C)NC(=O)[C@H](CC(=O)O)NC(=O)[C@H](Cc2ccncc2)NC(=O)[C@H](CCCCN)NC(=O)CNC(=O)[C@H](C(C)(C)C)NC1=O [compound 219, Ac-hLeu-Y-C-Tbg-G-K-4PyA-D-V-Y-C-1Nal-F-NMeSer-dLys(DOTA)-CONH2] (Ac-[hLeu]YC[Tle]GK[4Pal]DVYC[1Nal]F[NMeS][dK](DOTA)-NH2; disulfide 3-11) |  |
